# Data as given in patent US8557737B2, “Methods of altering poppy characteristics” (priority 2005, dated 2013).
# How the values were obtained:
# Format in all cases: in vivo, Papaver somniferum
# poppy crops [1] = experiment: Example 19: field trial, sulfosulfuron, thifensulfuron-methyl and metsulfuron-methyl, morphine crop; conditions: applied at M-LRU and LRU-BE; for PLANT HEIGHT: measured some 10 weeks after last application
# Protocol: (§1) All trials were conducted on poppy crops. Seed was treated with Thiram (5.6 g of Thiram 800/kg seed) and Apron (4 g/kg) and sown at a rate of approximately 750 g/ha. Fertilisers were applied at sowing. Most commonly, either 50:50 lime:superphosphate/triple superphosphate at 125 kg/ha, or lime:superphosphate at 250 kg/ha, were mixed with seed and drilled at a depth of 15 mm. In the same operation, NPK (nitrogen:phosphorus:potassium), at various rates, was banded 75 mm below the seed, unless otherwise stated. All crops were subjected to herbicide sprays for weed control, fungicide sprays for disease control, insecticide sprays if appropriate and were irrigated as required.
# (§2) All spray applications were made with a precision sprayer, using Silvan Lurmark flat-fan, low-drift nozzles (LD110-0015). Spray equipment was calibrated to deliver 153 L water/ha.
# (§3) At harvest, a 2 m×4 m quadrat was placed in each plot (3 m×6 m, unless otherwise stated) and capsules hand-picked from this area. Capsules were broken up, seed and capsule material separated and weighed. Capsule moisture readings were taken with a moisture meter. Alkaloid yield data were calculated on Pesticide Research Manager (version 5 for Windows) using the formulae below. Briefly, capsule weight was adjusted for moisture to a dry weight, 5% of seed weight was added to this (this amount of capsule material regularly occurs in seed samples after processing) to give a capsule weight per plot. Seed weight was adjusted to 95% of crude weight. Straw weights were determined by multiplying dry capsule weight by 1.3 (estimated amount of stem material in a commercial harvest) and adjusted to 11% moisture. When Lontrel was applied to crops exact capsule and seed weight data were entered. Analyses of variance and a Multiple Range Test were performed on data using Pesticide Research Manager.
# Trial to evaluate applications of sulfosulfuron, thifensulfuron-methyl and metsulfuron-methyl, in a morphine crop. Treatment sprays were applied to crop at mid-late run-up and late-run-up/bud-emergence, respectively. Plant heights were measured some 10 weeks after the last application. Lodging was assessed at capsule harvest.
# poppy crops [2] = experiment: Example 10: field trial, triasulfuron and metsulfuron-methyl, morphine crop
# Protocol: as §1, §2
# as §3, with “Manager. Significant differences (P=0.05) between treatments are denoted by different lower case letters adjacent to treatment means in the tables of results.” for “Manager.”
# […] Treatment sprays were applied to crop at ground cover, mid run-up and bud-emergence, respectively.
# poppy crops [3] = experiment: Example 16: field trial, metsulfuron-methyl, mesosulfuron-methyl and triasulfuron at row cover and ground cover/early run-up, morphine crop; conditions: for PLANT HEIGHT: 5 weeks after last application
# Protocol: as §1, §2, §3
# Trial to evaluate applications of metsulfuron-methyl (Compound 1), mesosulfuron-methyl (Compound 2) and triasulfuron (Compound 3), in a morphine crop. Treatment sprays were applied to crop at row cover and ground cover/early run-up, respectively. Plant heights were assessed 5 weeks after last application and lodging was assessed at capsule harvest.
# poppy crops [4] = experiment: Example 17: field trial, triasulfuron, mesosulfuron-methyl and metsulfuron-methyl at early run-up and mid-late run-up, morphine crop; conditions: for PLANT HEIGHT: 6 weeks after last application; for LODGING: at capsule harvest
# Protocol: as §1, §2, §3
# Trial to evaluate applications of triasulfuron, mesosulfuron-methyl and metsulfuron-methyl, in a morphine crop. Treatment sprays were applied to with crop at early run-up and mid-late run-up, respectively. Plant heights were measured on 6 weeks after last application and lodging was assessed at capsule harvest.
# poppy crops [5] = experiment: Example 18: field trial, triasulfuron, mesosulfuron-methyl and metsulfuron-methyl at row cover, mid run-up and early hook, morphine crop; conditions: MRU and LRU; for PLANT HEIGHT: 5 weeks after last application; for LODGING: at capsule harvest
# Protocol: as §1, §2, §3
# Trial to evaluate applications of triasulfuron, mesosulfuron-methyl and metsulfuron-methyl, in a morphine crop. […] Plant heights were measured 5 weeks after last application and lodging at capsule harvest.
# [6] = 1.35 G/HA + ACTIVATOR .125 % V/V
# [7] = 4.5 G/HA + ACTIVATOR .125 % V/V
# [8] = 450 MG/HA + ACTIVATOR .125 % V/V
# [9] = COMPOUND 3 263 MG/HA + PULSE .2 % V/V at GC and RU
# [10] = COMPOUND 3 525 MG/HA + PULSE .2 % V/V at GC (one application)
# [11] = COMPOUND 3 525 MG/HA + PULSE .2 % V/V at GC and RU
# [12] = Trt 3: COMPOUND 3 75 MG/HA + PULSE .2% V/V at RC and GC/ERU
# [13] = Trt 4: COMPOUND 3 150 MG/HA + PULSE .2% V/V at RC and GC/ERU
# [14] = Trt 3: COMPOUND 3 75 MG/HA + PULSE .2% V/V at ERU and M-LRU
# [15] = Trt 4: COMPOUND 3 150 MG/HA + PULSE .2% V/V at ERU and M-LRU
# [16] = Trt 3: COMPOUND 3 75 MG/HA + PULSE .2% V/V at RC
# [17] = Trt 4: COMPOUND 3 150 MG/HA + PULSE .2% V/V at RC
compound,measurement,setting,value
"COC(=O)c1sccc1S(=O)(=O)NC(=O)Nc1nc(C)nc(OC)n1 [Compound 4, thifensulfuron-methyl]",CAPSULE/SEED RATIO,poppy crops [1]; [6],3.299
same,CROP WEIGHT,poppy crops [1]; [6],0.22 t/ha
same,MORPHINE,poppy crops [1]; [6],4.10 kg/ha
same,SEED,poppy crops [1]; [6],39 kg/ha
same,STRAW,poppy crops [1]; [6],184 kg/ha
same,STRAW MORPHINE %,poppy crops [1]; [6],2.23%
same,PLANT HEIGHT,poppy crops [1]; [6],65 cm
same,CAPSULE/SEED RATIO,poppy crops [1]; [7],0
same,CROP WEIGHT,poppy crops [1]; [7],0 t/ha
same,MORPHINE,poppy crops [1]; [7],0 kg/ha
same,SEED,poppy crops [1]; [7],0 kg/ha
same,STRAW,poppy crops [1]; [7],0 kg/ha
same,STRAW MORPHINE %,poppy crops [1]; [7],0%
same,PLANT HEIGHT,poppy crops [1]; [7],0 cm
same,CAPSULE/SEED RATIO,poppy crops [1]; [8],5.209
same,CROP WEIGHT,poppy crops [1]; [8],0.87 t/ha
same,MORPHINE,poppy crops [1]; [8],16.19 kg/ha
same,SEED,poppy crops [1]; [8],103 kg/ha
same,STRAW,poppy crops [1]; [8],771 kg/ha
same,STRAW MORPHINE %,poppy crops [1]; [8],2.10%
same,PLANT HEIGHT,poppy crops [1]; [8],78 cm
"CCS(=O)(=O)c1nc2ccccn2c1S(=O)(=O)NC(=O)Nc1nc(OC)cc(OC)n1 [Compound 5, sulfosulfuron]",CAPSULE/SEED RATIO,poppy crops [1]; 60 MG/HA + SWIFT 1 % V/V,2.324
same,CROP WEIGHT,poppy crops [1]; 60 MG/HA + SWIFT 1 % V/V,.96 t/ha
same,MORPHINE,poppy crops [1]; 60 MG/HA + SWIFT 1 % V/V,19.19 kg/ha
same,SEED,poppy crops [1]; 60 MG/HA + SWIFT 1 % V/V,220 kg/ha
same,STRAW,poppy crops [1]; 60 MG/HA + SWIFT 1 % V/V,738 kg/ha
same,STRAW MORPHINE %,poppy crops [1]; 60 MG/HA + SWIFT 1 % V/V,2.6%
same,PLANT HEIGHT,poppy crops [1]; 60 MG/HA + SWIFT 1 % V/V,73 cm
same,CAPSULE/SEED RATIO,poppy crops [1]; 180 MG/HA + SWIFT 1 % V/V,2.898
same,CROP WEIGHT,poppy crops [1]; 180 MG/HA + SWIFT 1 % V/V,1.15 t/ha
same,MORPHINE,poppy crops [1]; 180 MG/HA + SWIFT 1 % V/V,22.90 kg/ha
same,SEED,poppy crops [1]; 180 MG/HA + SWIFT 1 % V/V,223 kg/ha
same,STRAW,poppy crops [1]; 180 MG/HA + SWIFT 1 % V/V,931 kg/ha
same,STRAW MORPHINE %,poppy crops [1]; 180 MG/HA + SWIFT 1 % V/V,2.46%
same,PLANT HEIGHT,poppy crops [1]; 180 MG/HA + SWIFT 1 % V/V,75 cm
same,CAPSULE/SEED RATIO,poppy crops [1]; 600 MG/HA + SWIFT 1 % V/V,4.564
same,CROP WEIGHT,poppy crops [1]; 600 MG/HA + SWIFT 1 % V/V,0.89 t/ha
same,MORPHINE,poppy crops [1]; 600 MG/HA + SWIFT 1 % V/V,20.74 kg/ha
same,SEED,poppy crops [1]; 600 MG/HA + SWIFT 1 % V/V,118 kg/ha
same,STRAW,poppy crops [1]; 600 MG/HA + SWIFT 1 % V/V,774 kg/ha
same,STRAW MORPHINE %,poppy crops [1]; 600 MG/HA + SWIFT 1 % V/V,2.68%
same,PLANT HEIGHT,poppy crops [1]; 600 MG/HA + SWIFT 1 % V/V,80 cm
"COc1nc(C)nc(NC(=O)NS(=O)(=O)c2ccccc2OCCCl)n1 [Compound 3, triasulfuron]",CAPSULE/SEED RATIO,poppy crops [2]; [9],3.170 b
same,CROP WEIGHT,poppy crops [2]; [9],0.79 d t/ha
same,HEIGHT,poppy crops [2]; [9],71.0 cm·days
same,MORPHINE,poppy crops [2]; [9],13.17 d kg/ha
same,SEED,poppy crops [2]; [9],141 c kg/ha
same,STRAW,poppy crops [2]; [9],644 d kg/ha
same,STRAW MORPHINE,poppy crops [2]; [9],2.03 b %
same,CAPSULE/SEED RATIO,poppy crops [2]; [10],1.762 c
same,CROP WEIGHT,poppy crops [2]; [10],1.40 c t/ha
same,HEIGHT,poppy crops [2]; [10],75.6 c cm
same,MORPHINE,poppy crops [2]; [10],20.55 b kg/ha
same,SEED,poppy crops [2]; [10],408 b kg/ha
same,STRAW,poppy crops [2]; [10],992 b kg/ha
same,STRAW MORPHINE,poppy crops [2]; [10],2.06 b %
same,CAPSULE/SEED RATIO,poppy crops [2]; [11],1.338 days
same,CROP WEIGHT,poppy crops [2]; [11],0.17 e t/ha
same,HEIGHT,poppy crops [2]; [11],55.0 e cm
same,MORPHINE,poppy crops [2]; [11],1.99 e kg/ha
same,SEED,poppy crops [2]; [11],60 c kg/ha
same,STRAW,poppy crops [2]; [11],113 e kg/ha
same,STRAW MORPHINE,poppy crops [2]; [11],1.76 c %
same,CAPS/SEED RATIO,poppy crops [3]; [12],1.259 b
same,CROP WEIGHT,poppy crops [3]; [12],3.47 b t/ha
same,MORPHINE,poppy crops [3]; [12],49.16 a kg/ha
same,SEED,poppy crops [3]; [12],1233 c kg/ha
same,STRAW,poppy crops [3]; [12],2211 a kg/ha
same,STRAW MORPHINE,poppy crops [3]; [12],2.21 a %
same,PLANT HEIGHT,poppy crops [3]; [12],103.4 b cm
same,CAPS/SEED RATIO,poppy crops [3]; [13],1.959 a
same,CROP WEIGHT,poppy crops [3]; [13],2.18 c t/ha
same,MORPHINE,poppy crops [3]; [13],32.34 c kg/ha
same,SEED,poppy crops [3]; [13],581 d kg/ha
same,STRAW,poppy crops [3]; [13],1589 c kg/ha
same,STRAW MORPHINE,poppy crops [3]; [13],2.03 b %
same,PLANT HEIGHT,poppy crops [3]; [13],88.6 c cm
same,CAPS/SEED RATIO,poppy crops [4]; [14],3.677 c
same,CROP WEIGHT,poppy crops [4]; [14],2.79 b t/ha
same,MORPHINE,poppy crops [4]; [14],51.94 a kg/ha
same,SEED,poppy crops [4]; [14],451 b kg/ha
same,STRAW,poppy crops [4]; [14],2299 a kg/ha
same,STRAW MORPHINE,poppy crops [4]; [14],2.26 b %
same,PLANT HEIGHT,poppy crops [4]; [14],100.2 bc cm
same,LODGING,poppy crops [4]; [14],1.6 b %
same,CAPS/SEED RATIO,poppy crops [4]; [15],6.016 b
same,CROP WEIGHT,poppy crops [4]; [15],1.71 c t/ha
same,MORPHINE,poppy crops [4]; [15],25.78 c kg/ha
same,SEED,poppy crops [4]; [15],175 c kg/ha
same,STRAW,poppy crops [4]; [15],1331 c kg/ha
same,STRAW MORPHINE,poppy crops [4]; [15],1.93 d %
same,PLANT HEIGHT,poppy crops [4]; [15],90.4 cm·days
same,LODGING,poppy crops [4]; [15],11.9 a %
same,CAPS/SEED RATIO,poppy crops [5]; [16],1.358 b
same,CROP WEIGHT,poppy crops [5]; [16],3.43 a t/ha
same,MORPHINE,poppy crops [5]; [16],51.88 a kg/ha
same,SEED,poppy crops [5]; [16],1161 b kg/ha
same,STRAW,poppy crops [5]; [16],2217 a kg/ha
same,STRAW MORPHINE,poppy crops [5]; [16],2.33 a %
same,PLANT HEIGHT,poppy crops [5]; [16],93.0 c cm
same,LODGING,poppy crops [5]; [16],2.2 a %
same,CAPS/SEED RATIO,poppy crops [5]; [17],2.664 a
same,CROP WEIGHT,poppy crops [5]; [17],2.32 c t/ha
same,MORPHINE,poppy crops [5]; [17],37.62 c kg/ha
same,SEED,poppy crops [5]; [17],482 c kg/ha
same,STRAW,poppy crops [5]; [17],1797 b kg/ha
same,STRAW MORPHINE,poppy crops [5]; [17],2.09 c %
same,PLANT HEIGHT,poppy crops [5]; [17],81.4 cm·days
same,LODGING,poppy crops [5]; [17],2.6 a %
